# From ChEMBL document CHEMBL1671662, “In vitro activities of telavancin and six comparator agents against anaerobic bacterial isolates” (2009)
# Experiments:
# [1] = tested on: Enterocloster clostridioformis; experiment: Antibacterial activity against Clostridium clostridioforme by CLSI M11-A6 agar dilution method; assay type: functional
# Clostridioides difficile = experiment: Antibacterial activity against Clostridium difficile by CLSI M11-A6 agar dilution method; assay type: functional
# Thomasclavelia ramosa = experiment: Antibacterial activity against Clostridium ramosum by CLSI M11-A6 agar dilution method; assay type: functional
# Clostridium bartlettii = experiment: Antibacterial activity against Clostridium bartlettii by CLSI M11-A6 agar dilution method; assay type: functional; details: Intestinibacter bartlettii
# Clostridium beijerinckii = experiment: Antibacterial activity against Clostridium beijerinckii by CLSI M11-A6 agar dilution method; assay type: functional
# Clostridium butyricum = experiment: Antibacterial activity against Clostridium butyricum by CLSI M11-A6 agar dilution method; assay type: functional
# Clostridium = experiment: Antibacterial activity against Clostridium hypermegas by CLSI M11-A6 agar dilution method; assay type: functional
# Clostridium leptum = experiment: Antibacterial activity against Clostridium leptum by CLSI M11-A6 agar dilution method; assay type: functional
# Flavonifractor plautii = experiment: Antibacterial activity against Clostridium orbiscindens by CLSI M11-A6 agar dilution method; assay type: functional
# [2] = tested on: Clostridium paraputrificum; experiment: Antibacterial activity against Clostridium paraputrificum by CLSI M11-A6 agar dilution method; assay type: functional
# Clostridium scindens = experiment: Antibacterial activity against Clostridium scindens by CLSI M11-A6 agar dilution method; assay type: functional
# [3] = tested on: Paeniclostridium sordellii; experiment: Antibacterial activity against Clostridium sordellii by CLSI M11-A6 agar dilution method; assay type: functional; details: Paraclostridium sordellii
# [4] = tested on: Bifidobacterium adolescentis; experiment: Antibacterial activity against Bifidobacterium adolescentis by CLSI M11-A6 agar dilution method; assay type: functional
# Bifidobacterium bifidum = experiment: Antibacterial activity against Bifidobacterium bifidum by CLSI M11-A6 agar dilution method; assay type: functional
# Bifidobacterium breve = experiment: Antibacterial activity against Bifidobacterium breve by CLSI M11-A6 agar dilution method; assay type: functional
# [5] = Antibacterial activity against Bifidobacterium infantis by CLSI M11-A6 agar dilution method; assay type: functional, Bifidobacterium longum subsp. infantis; details: Bifidobacterium longum
# Bifidobacterium longum = experiment: Antibacterial activity against Bifidobacterium longum by CLSI M11-A6 agar dilution method; assay type: functional
# Collinsella aerofaciens = experiment: Antibacterial activity against Colinsella aerofaciens by CLSI M11-A6 agar dilution method; assay type: functional
# [6] = tested on: Coprobacillus cateniformis; experiment: Antibacterial activity against Coprobacillus cateniformis by CLSI M11-A6 agar dilution method; assay type: functional
# [7] = tested on: Propionibacterium propionicum; experiment: Antibacterial activity against Propionibacterium propionicus by CLSI M11-A6 agar dilution method; assay type: functional; details: Arachnia propionica
# Ruminococcus obeum = experiment: Antibacterial activity against Ruminococcus obeum by CLSI M11-A6 agar dilution method; assay type: functional; details: Blautia obeum
# Ruminococcus albus = experiment: Antibacterial activity against Ruminococcus albus by CLSI M11-A6 agar dilution method; assay type: functional; details: Hominimerdicola alba
# [8] = tested on: Ruminococcus flavefaciens; experiment: Antibacterial activity against Ruminococcus flavefaciens by CLSI M11-A6 agar dilution method; assay type: functional
# Ruminococcus lactaris = experiment: Antibacterial activity against Ruminococcus lactaris by CLSI M11-A6 agar dilution method; assay type: functional
# Ruminococcus torques = experiment: Antibacterial activity against Ruminococcus torques by CLSI M11-A6 agar dilution method; assay type: functional; details: Mediterraneibacter torques
# Ruminococcus sp. = experiment: Antibacterial activity against Ruminococcus sp. by CLSI M11-A6 agar dilution method; assay type: functional
# Anaerococcus tetradius = experiment: Antibacterial activity against Anaerococcus tetradius by CLSI M11-A6 agar dilution method; assay type: functional
# Parvimonas micra = experiment: Antibacterial activity against Peptostreptococcus micros by CLSI M11-A6 agar dilution method; assay type: functional
# Streptococcus anginosus = experiment: Antibacterial activity against Streptococcus anginosus by CLSI M11-A6 agar dilution method; assay type: functional
# Phocaeicola vulgatus = experiment: Antibacterial activity against Bacteroides vulgatus by CLSI M11-A6 agar dilution method; assay type: functional
# Odoribacter splanchnicus = experiment: Antibacterial activity against Bacteroides splanchnicus by CLSI M11-A6 agar dilution method; assay type: functional
# Bilophila wadsworthia = experiment: Antibacterial activity against Bilophila wadsworthia by CLSI M11-A6 agar dilution method; assay type: functional
# Fusobacterium mortiferum = experiment: Antibacterial activity against Fusobacterium mortiferum by CLSI M11-A6 agar dilution method; assay type: functional
# Prevotella corporis = experiment: Antibacterial activity against Prevotella corporis by CLSI M11-A6 agar dilution method; assay type: functional
# Prevotella denticola = experiment: Antibacterial activity against Prevotella P denticola by CLSI M11-A6 agar dilution method; assay type: functional
# Prevotella disiens = experiment: Antibacterial activity against Prevotella P disiens by CLSI M11-A6 agar dilution method; assay type: functional
# Prevotella intermedia = experiment: Antibacterial activity against Prevotella P intermedia by CLSI M11-A6 agar dilution method; assay type: functional
# Prevotella nigrescens = experiment: Antibacterial activity against Prevotella nigrescens by CLSI M11-A6 agar dilution method; assay type: functional
# [9] = tested on: Sutterella wadsworthensis; experiment: Antibacterial activity against Sutterella wadsworthensis by CLSI M11-A6 agar dilution method; assay type: functional
smiles,measurement,setting,value
CCCCCCCCCCNCCN[C@@]1(C)C[C@H](O[C@H]2[C@H](Oc3c4cc5cc3Oc3ccc(cc3Cl)[C@@H](O)[C@@H](NC(=O)[C@@H](CC(C)C)NC)C(=O)N[C@@H](CC(N)=O)C(=O)N[C@H]5C(=O)N[C@H]3C(=O)N[C@H](C(=O)N[C@H](C(=O)O)c5cc(O)c(CNCP(=O)(O)O)c(O)c5-c5cc3ccc5O)[C@H](O)c3ccc(c(Cl)c3)O4)O[C@H](CO)[C@@H](O)[C@@H]2O)O[C@@H](C)[C@H]1O [TELAVANCIN],MIC50,[1],4 µg/mL
same,MIC90,[1],8 µg/mL
same,MIC50,Clostridioides difficile,0.25 µg/mL
same,MIC90,Clostridioides difficile,0.25 µg/mL
same,MIC,Thomasclavelia ramosa,0.25 µg/mL
same,MIC50,Thomasclavelia ramosa,0.25 µg/mL
same,MIC90,Thomasclavelia ramosa,0.25 µg/mL
same,MIC50,Clostridium bartlettii,≤ 0.12 µg/mL
same,MIC90,Clostridium bartlettii,0.25 µg/mL
same,MIC50,Clostridium beijerinckii,≤ 0.12 µg/mL
same,MIC90,Clostridium beijerinckii,0.25 µg/mL
same,MIC50,Clostridium butyricum,≤ 0.12 µg/mL
same,MIC90,Clostridium butyricum,0.25 µg/mL
same,MIC50,Clostridium,≤ 0.12 µg/mL
same,MIC90,Clostridium,0.25 µg/mL
same,MIC50,Clostridium leptum,≤ 0.12 µg/mL
same,MIC90,Clostridium leptum,0.25 µg/mL
same,MIC50,Flavonifractor plautii,≤ 0.12 µg/mL
same,MIC90,Flavonifractor plautii,0.25 µg/mL
same,MIC50,[2],≤ 0.12 µg/mL
same,MIC90,[2],0.25 µg/mL
same,MIC50,Clostridium scindens,≤ 0.12 µg/mL
same,MIC90,Clostridium scindens,0.25 µg/mL
same,MIC50,[3],≤ 0.12 µg/mL
same,MIC90,[3],0.25 µg/mL
same,MIC50,[4],≤ 0.12 µg/mL
same,MIC90,[4],0.5 µg/mL
same,MIC50,Bifidobacterium bifidum,≤ 0.12 µg/mL
same,MIC90,Bifidobacterium bifidum,0.5 µg/mL
same,MIC50,Bifidobacterium breve,≤ 0.12 µg/mL
same,MIC90,Bifidobacterium breve,0.5 µg/mL
same,MIC50,[5],≤ 0.12 µg/mL
same,MIC90,[5],0.5 µg/mL
same,MIC50,Bifidobacterium longum,≤ 0.12 µg/mL
same,MIC90,Bifidobacterium longum,0.5 µg/mL
same,MIC50,Collinsella aerofaciens,≤ 0.12 µg/mL
same,MIC90,Collinsella aerofaciens,0.5 µg/mL
same,MIC50,[6],≤ 0.12 µg/mL
same,MIC90,[6],0.5 µg/mL
same,MIC50,[7],≤ 0.12 µg/mL
same,MIC90,[7],0.5 µg/mL
same,MIC,Ruminococcus obeum,≤ 0.12 µg/mL
same,MIC50,Ruminococcus obeum,≤ 0.12 µg/mL
same,MIC90,Ruminococcus obeum,≤ 0.12 µg/mL
same,MIC50,Ruminococcus albus,≤ 0.12 µg/mL
same,MIC90,Ruminococcus albus,≤ 0.12 µg/mL
same,MIC50,[8],≤ 0.12 µg/mL
same,MIC90,[8],≤ 0.12 µg/mL
same,MIC50,Ruminococcus lactaris,≤ 0.12 µg/mL
same,MIC90,Ruminococcus lactaris,≤ 0.12 µg/mL
same,MIC50,Ruminococcus torques,≤ 0.12 µg/mL
same,MIC90,Ruminococcus torques,≤ 0.12 µg/mL
same,MIC50,Ruminococcus sp.,≤ 0.12 µg/mL
same,MIC90,Ruminococcus sp.,0.25 µg/mL
same,MIC50,Anaerococcus tetradius,≤ 0.12 µg/mL
same,MIC90,Anaerococcus tetradius,0.25 µg/mL
same,MIC50,Parvimonas micra,≤ 0.12 µg/mL
same,MIC90,Parvimonas micra,0.25 µg/mL
same,MIC50,Streptococcus anginosus,≤ 0.12 µg/mL
same,MIC90,Streptococcus anginosus,≤ 0.12 µg/mL
same,MIC,Phocaeicola vulgatus,> 64 µg/mL
same,MIC50,Phocaeicola vulgatus,> 64 µg/mL
same,MIC90,Phocaeicola vulgatus,> 64 µg/mL
same,MIC50,Odoribacter splanchnicus,> 64 µg/mL
same,MIC90,Odoribacter splanchnicus,> 64 µg/mL
same,MIC,Bilophila wadsworthia,> 64 µg/mL
same,MIC50,Bilophila wadsworthia,> 64 µg/mL
same,MIC90,Bilophila wadsworthia,> 64 µg/mL
same,MIC50,Fusobacterium mortiferum,> 64 µg/mL
same,MIC90,Fusobacterium mortiferum,> 64 µg/mL
same,MIC50,Prevotella corporis,8 µg/mL
same,MIC90,Prevotella corporis,64 µg/mL
same,MIC50,Prevotella denticola,8 µg/mL
same,MIC90,Prevotella denticola,64 µg/mL
same,MIC50,Prevotella disiens,8 µg/mL
same,MIC90,Prevotella disiens,64 µg/mL
same,MIC50,Prevotella intermedia,8 µg/mL
same,MIC90,Prevotella intermedia,64 µg/mL
same,MIC50,Prevotella nigrescens,8 µg/mL
same,MIC90,Prevotella nigrescens,64 µg/mL
same,MIC,[9],> 64 µg/mL
same,MIC50,[9],> 64 µg/mL
same,MIC90,[9],> 64 µg/mL
CC(=O)NC[C@H]1CN(c2ccc(N3CCOCC3)c(F)c2)C(=O)O1 [LINEZOLID],MIC50,[1],4 µg/mL
same,MIC90,[1],4 µg/mL
same,MIC50,Clostridioides difficile,2 µg/mL
same,MIC90,Clostridioides difficile,16 µg/mL
same,MIC50,Thomasclavelia ramosa,8 µg/mL
same,MIC90,Thomasclavelia ramosa,8 µg/mL
same,MIC50,Clostridium bartlettii,2 µg/mL
same,MIC90,Clostridium bartlettii,4 µg/mL
same,MIC50,Clostridium beijerinckii,2 µg/mL
same,MIC90,Clostridium beijerinckii,4 µg/mL
same,MIC50,Clostridium butyricum,2 µg/mL
same,MIC90,Clostridium butyricum,4 µg/mL
same,MIC50,Clostridium,2 µg/mL
same,MIC90,Clostridium,4 µg/mL
same,MIC50,Clostridium leptum,2 µg/mL
same,MIC90,Clostridium leptum,4 µg/mL
same,MIC50,Flavonifractor plautii,2 µg/mL
same,MIC90,Flavonifractor plautii,4 µg/mL
same,MIC50,[2],2 µg/mL
same,MIC90,[2],4 µg/mL
same,MIC50,Clostridium scindens,2 µg/mL
same,MIC90,Clostridium scindens,4 µg/mL
same,MIC50,[3],2 µg/mL
same,MIC90,[3],4 µg/mL
same,MIC50,[4],1 µg/mL
same,MIC90,[4],8 µg/mL
same,MIC50,Bifidobacterium bifidum,1 µg/mL
same,MIC90,Bifidobacterium bifidum,8 µg/mL
same,MIC50,Bifidobacterium breve,1 µg/mL
same,MIC90,Bifidobacterium breve,8 µg/mL
same,MIC90,[5],8 µg/mL
same,MIC50,Bifidobacterium longum,1 µg/mL
same,MIC90,Bifidobacterium longum,8 µg/mL
same,MIC50,Collinsella aerofaciens,1 µg/mL
same,MIC90,Collinsella aerofaciens,8 µg/mL
same,MIC50,[6],1 µg/mL
same,MIC90,[6],8 µg/mL
same,MIC50,[7],1 µg/mL
same,MIC90,[7],8 µg/mL
same,MIC,Ruminococcus obeum,1 µg/mL
same,MIC50,Ruminococcus obeum,1 µg/mL
same,MIC90,Ruminococcus obeum,2 µg/mL
same,MIC50,Ruminococcus albus,2 µg/mL
same,MIC90,Ruminococcus albus,4 µg/mL
same,MIC50,[8],2 µg/mL
same,MIC90,[8],4 µg/mL
same,MIC50,Ruminococcus lactaris,2 µg/mL
same,MIC90,Ruminococcus lactaris,4 µg/mL
same,MIC50,Ruminococcus torques,2 µg/mL
same,MIC90,Ruminococcus torques,4 µg/mL
same,MIC50,Ruminococcus sp.,1 µg/mL
same,MIC90,Ruminococcus sp.,2 µg/mL
same,MIC50,Anaerococcus tetradius,1 µg/mL
same,MIC90,Anaerococcus tetradius,2 µg/mL
same,MIC50,Parvimonas micra,1 µg/mL
same,MIC90,Parvimonas micra,2 µg/mL
same,MIC50,Streptococcus anginosus,2 µg/mL
same,MIC90,Streptococcus anginosus,4 µg/mL
same,MIC50,Phocaeicola vulgatus,2 µg/mL
same,MIC90,Phocaeicola vulgatus,4 µg/mL
same,MIC,Odoribacter splanchnicus,2 µg/mL
same,MIC50,Odoribacter splanchnicus,2 µg/mL
same,MIC90,Odoribacter splanchnicus,4 µg/mL
same,MIC50,Bilophila wadsworthia,4 µg/mL
same,MIC90,Bilophila wadsworthia,16 µg/mL
same,MIC50,Fusobacterium mortiferum,1 µg/mL
same,MIC90,Fusobacterium mortiferum,1 µg/mL
same,MIC50,Prevotella corporis,2 µg/mL
same,MIC90,Prevotella corporis,2 µg/mL
same,MIC50,Prevotella denticola,2 µg/mL
same,MIC90,Prevotella denticola,2 µg/mL
same,MIC50,Prevotella disiens,2 µg/mL
same,MIC90,Prevotella disiens,2 µg/mL
same,MIC50,Prevotella intermedia,2 µg/mL
same,MIC90,Prevotella intermedia,2 µg/mL
same,MIC50,Prevotella nigrescens,2 µg/mL
same,MIC90,Prevotella nigrescens,2 µg/mL
same,MIC,[9],> 128 µg/mL
same,MIC50,[9],> 128 µg/mL
same,MIC90,[9],> 128 µg/mL
